From publication PMC10442857, “Cellular Uptake of a Fluorescent Ligand Reveals Ghrelin O-Acyltransferase Interacts with Extracellular Peptides and Exhibits Unexpected Localization for a Secretory Pathway Enzyme” (ACS Chemical Biology, 2023)
Like-named read-outs stand apart in the source and are kept apart here. Values belong to the molecule of their own block, whether it stands above or below them. Square brackets hold non-standard residues; d marks the D form. Peptide text beside a SMILES is read from it. * marks the point of attachment. 1Nal = N[C@@H](Cc1cccc2ccccc12)C(=O)O; X2 = O=C(c1ccc2cc(F)ccc2c1)*; Dap = NC[C@H](N)C(=O)O; Inp = O=C(O)C1CCNCC1

Legend:
[1] = target: human ghrelin O-acyltransferase (hGOAT) of the hGOAT inhibition assays (human) (UniProt Q96T53)
[2] = target: T1, hGOAT (Homo sapiens, UniProt Q96T53); assay: hGOAT inhibition assay (octanoylation of GSSFLCAcDan by Sf9 membrane fraction expressing hGOAT, HPLC fluorescence); type: biochemical; conditions: read-out: IC50 against hGOAT
T1 construct: 3xHA (C); FLAG (C); His6 (C); made in house; host or cells: Sf9 insect cells (baculovirus), crude membrane fraction
T1 sequence (Q96T53 1-435): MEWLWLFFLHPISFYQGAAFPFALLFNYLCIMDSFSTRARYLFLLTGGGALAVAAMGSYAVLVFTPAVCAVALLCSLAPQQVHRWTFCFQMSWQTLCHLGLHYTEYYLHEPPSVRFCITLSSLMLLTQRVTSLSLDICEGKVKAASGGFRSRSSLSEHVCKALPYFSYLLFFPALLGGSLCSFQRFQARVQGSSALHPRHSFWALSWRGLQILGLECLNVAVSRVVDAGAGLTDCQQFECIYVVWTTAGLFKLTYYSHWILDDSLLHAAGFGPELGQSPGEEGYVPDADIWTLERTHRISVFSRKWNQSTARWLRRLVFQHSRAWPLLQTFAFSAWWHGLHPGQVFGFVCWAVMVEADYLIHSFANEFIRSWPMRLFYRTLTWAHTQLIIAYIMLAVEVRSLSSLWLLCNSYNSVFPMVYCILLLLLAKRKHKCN
Description: Assays were performed using previously reported protocols,[57],[58] as described in the Supporting Information. […]
hGOAT inhibition assays. Assays were performed using previously reported protocols.2-3 For each assay, membrane fraction from Sf9 cells expressing hGOAT was thawed on ice and homogenized by passage through an 18-gauge needle 10 times. Assays were performed with 50 µg of membrane protein, as determined by Bradford assay. Membrane fraction was pre-incubated with 1 µM methyl […]
arachidonyl fluorophosphonate (MAFP) and unlabeled peptide inhibitor or vehicle as indicated in 50 mM HEPES pH 7.0 for 30 minutes at room temperature prior to reaction initiation.4 All reactions were initiated by the addition of 1.5 µM GSSFLCAcDan and 300 µM octanoyl CoA.
Reactions were incubated for 30 minutes at room temperature under foil. All assays were stopped with the addition of 50 µL of 20% acetic acid in isopropanol, and solutions were clarified by protein precipitation with 16.7 µL of 20% trichloroacetic acid, followed by centrifugation (1,000 x g, 2 minutes). The supernatant was then analyzed using reverse-phase HPLC with fluorescence detection as previously described.2-3 Peak integrations for both substrate and product peaks were calculated using Chemstation for LC (Agilent Technologies). Data reported are the average of three independent determinations, with error reported as standard deviation.
For determination of IC50 values, the percent activity at each inhibitor concentration was calculated from HPLC integration data using equations 1 and 2: To determine an IC50 value for a given inhibitor, the plot of % activity versus [inhibitor] was fit to equation 3, with % activity0 denoting hGOAT activity in the presence of the vehicle alone. All reported IC50 values represent the average of a minimum of three independent trials.
(1) % activity = % peptide acylation in presence of inhibitor
% peptide acylation in absence of inhibitor
(2) % peptide octanoylation = Fluorescence of acylated peptide
Total peptide fluorescence (acylated and non-acylated)
(3) % activity = % activity * (1- [inhibitor] )

[3] = target: T2, GHSR (GHS-R1a) (Homo sapiens, UniProt Q92847); parameters: method as in Charron et al.[22]; conditions: ref Charron et al.[22]; read-out: IC50 against GHSR; cited from earlier work
T2 construct: expressed in transfected cells; host or cells: HEK 293 cells transfected with GHS-R1a (membrane suspension)
Target sequence in this assay (Q92847 whole entry, species assumed): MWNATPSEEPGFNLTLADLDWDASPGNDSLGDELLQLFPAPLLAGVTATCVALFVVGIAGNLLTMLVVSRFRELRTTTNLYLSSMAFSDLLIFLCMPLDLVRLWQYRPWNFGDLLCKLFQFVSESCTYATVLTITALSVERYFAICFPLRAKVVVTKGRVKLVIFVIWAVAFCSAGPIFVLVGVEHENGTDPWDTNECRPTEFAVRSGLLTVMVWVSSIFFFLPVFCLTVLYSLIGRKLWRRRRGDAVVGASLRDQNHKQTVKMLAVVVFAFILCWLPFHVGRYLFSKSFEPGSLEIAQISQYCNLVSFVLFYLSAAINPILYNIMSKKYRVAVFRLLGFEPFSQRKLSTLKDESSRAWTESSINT

[4] = target: T2, GHSR (GHS-R1a); assay: biochemical; type: binding; conditions: for IC50: lower limit from test at 100 µM, read-out: IC50 against GHSR
Description: Peptide binding affinity for the ghrelin receptor was determined using a competitive radioligand-displacement binding assay,[22] with details provided in the Supporting Information. […]
GHSR receptor binding assays. Peptide binding affinity for the ghrelin receptor was determined using a competitive radioligand-displacement binding assay.1 Assays were performed using GHS-R1a transfected HEK 293 cells as the receptor source and human His[125I]-ghrelin(1−28) (PerkinElmer Inc. NEX388010UC ) as the radioligand. Human ghrelin(1−28) was used as a reference to ensure the validity of the results. A suspension of membrane from HEK 293/GHS-R1a cells (100,000 cells per assay tube) were incubated with ghrelin(1−8) peptide analogues (at […]
ghrelin (15 pM per assay tube) in binding buffer (25 mM HEPES, 5 mM magnesium chloride, 1 mM calcium chloride, 2.5 mM EDTA, and 0.4% BSA, pH 7.4). The resulting suspension was incubated for 20 min under shaking (550 rpm) at 37 °C. Unbound [ 125I]-ghrelin was removed and the amount of [ 125I]-ghrelin bound to the membranes was measured by γ counter. IC 50 values were determined by nonlinear regression analysis to fit a four-parameter dose−response curve using Prism 6 (version 6.0c). All binding assays were performed in triplicate. […]

Molecule: ligand 3, H-GS-(6FN-Dap)-FLSPY-NH2 (peptide)
- inhibition of hGOAT activity (IC50 against hGOAT) [1]: > 100000 nM

Molecule: CC(C)C[C@H](NC(=O)[C@H](Cc1cccc2ccccc12)NC(=O)[C@H](CNC(=O)c1ccc2cc(F)ccc2c1)NC(=O)[C@H](CO)NC(=O)C1CCNCC1)C(=O)N[C@@H](CO)C(=O)N1CCC[C@H]1C(=O)N[C@H](C(N)=O)[C@@H](C)O [ligand 14] (H-[Inp]S[Dap](X2)[1Nal]LSPT-NH2)
- IC50 [2]: > 100 µM

Molecule: ligand 2, H-GS-(C8-Dap)-FLSPY-NH2 (peptide)
- inhibition of hGOAT activity (IC50 against hGOAT) [1]: 64 nM

Molecule: H-Aib-S-(6FN-Dap)-FLSPY-NH2 [ligand 6]
- IC50 [3]: 9.2 nM

Molecule: H-Inp-S-(6FN-Dap)-FLSPY-NH2 [ligand 7]
- IC50 [3]: 9.6 nM

More lines, main results first:

- inhibition of hGOAT activity (IC50 against hGOAT) [1]: 59 nM
Molecule: ligand 10, H-GS-(C8-Dap)-FLSPN-NH2 (peptide)

- selectivity for GHSR binding over GOAT ([4]; from IC50 values of Table 1): > 100 fold
- IC50 [2]: > 100 µM
Molecule: CC(C)C[C@H](NC(=O)[C@H](Cc1ccccc1)NC(=O)[C@H](CNC(=O)c1ccc2cc(F)ccc2c1)NC(=O)[C@H](CO)NC(=O)CN)C(=O)N[C@@H](CO)C(=O)N1CCC[C@H]1C(=O)N[C@@H](Cc1ccc(O)cc1)C(N)=O [ligand 3, H-GS-(6FN-Dap)-FLSPY-NH2] (H-GS[Dap](X2)FLSPY-NH2)
- IC50 [3]: 9.9 nM

- IC50 [4]: ≥ 100 µM
Molecule: CC(C)C[C@H](NC(=O)[C@H](Cc1ccccc1)NC(=O)[C@H](CN)NC(=O)[C@H](CO)NC(=O)CN)C(=O)N[C@@H](CO)C(=O)N1CCC[C@H]1C(=O)N[C@@H](Cc1ccc(O)cc1)C(N)=O [ligand 1, H-GS-Dap-FLSPY-NH2] (HELM PEPTIDE1{G.S.[NC[C@H](N[*:1])C(=O)[*:2]].F.L.S.P.Y.[am]}$$$$V2.0)

- inhibition of hGOAT activity (IC50 against hGOAT) [1]: 580 nM
Molecule: ligand 9, H-GS-(C8-Dap)-FLSPE-NH2 (peptide)

- IC50 [4]: ≥ 100 µM
- IC50 [2]: > 100 µM
Molecule: CC(C)C[C@H](NC(=O)[C@H](Cc1ccccc1)NC(=O)[C@H](CN)NC(=O)[C@H](CO)NC(=O)C(C)(C)N)C(=O)N[C@@H](CO)C(=O)N1CCC[C@H]1C(=O)N[C@@H](Cc1ccc(O)cc1)C(N)=O [ligand 4, H-Aib-S-Dap-FLSPY-NH2] (HELM PEPTIDE1{[Aib].S.[NC[C@H](N[*:1])C(=O)[*:2]].F.L.S.P.Y.[am]}$$$$V2.0)
